Laboratory results as given in the NIST ThermoML archive (doi:10.1021/je700021f).
± gives the expanded uncertainty stated by the source.

Tests used:
[1] = 101 kPa, Liquid, Pulse-echo method
[2] = xn = mol fraction of the nth substance listed; conditions: 101 kPa, Liquid, Pulse-echo method, x1 = 1

CCCCCCCCCCl [1-chlorononane]
speed of sound ([1]; 293.15 K): 1297.2 ± 3.4 m/s | speed of sound ([1]; 298.15 K): 1278.2 ± 3.3 m/s | speed of sound ([1]; 303.15 K): 1259.5 ± 3.3 m/s | speed of sound ([1]; 308.15 K): 1240.9 ± 3.3 m/s | speed of sound ([1]; 313.15 K): 1222.5 ± 3.2 m/s | speed of sound ([1]; 318.15 K): 1204.3 ± 3.2 m/s | speed of sound ([1]; 323.15 K): 1186.3 ± 3.2 m/s | speed of sound ([1]; 328.15 K): 1168.4 ± 3.1 m/s | speed of sound ([1]; 333.15 K): 1150.7 ± 3.1 m/s | speed of sound ([1]; 338.15 K): 1133.2 ± 3.1 m/s | speed of sound ([1]; 343.15 K): 1115.9 ± 3.1 m/s | speed of sound ([1]; 348.15 K): 1098.8 ± 3 m/s | speed of sound ([1]; 353.15 K): 1081.9 ± 3 m/s | speed of sound ([1]; 358.15 K): 1065.1 ± 3 m/s | speed of sound ([1]; 363.15 K): 1048.5 ± 3 m/s | speed of sound ([1]; 368.15 K): 1032.2 ± 2.9 m/s | speed of sound ([1]; 373.15 K): 1015.9 ± 2.9 m/s | speed of sound ([1]; 378.15 K): 999.1 ± 2.9 m/s | speed of sound ([1]; 383.15 K): 982.7 ± 2.9 m/s | speed of sound ([1]; 388.15 K): 966.4 ± 2.8 m/s | speed of sound ([1]; 393.15 K): 950.3 ± 2.8 m/s | speed of sound ([1]; 398.15 K): 934.3 ± 2.8 m/s | speed of sound ([1]; 403.15 K): 918.4 ± 2.8 m/s | speed of sound ([1]; 408.15 K): 902.6 ± 2.8 m/s | speed of sound ([1]; 413.15 K): 887 ± 2.7 m/s | speed of sound ([1]; 418.15 K): 871.4 ± 2.7 m/s | speed of sound ([1]; 423.15 K): 856 ± 2.7 m/s

CCCCCCCCC [nonane]
speed of sound ([1]; 293.15 K): 1227.3 ± 3.2 m/s | speed of sound ([1]; 298.15 K): 1207.2 ± 3.2 m/s | speed of sound ([1]; 303.15 K): 1187.2 ± 3.2 m/s | speed of sound ([1]; 308.15 K): 1167.3 ± 3.1 m/s | speed of sound ([1]; 313.15 K): 1147.5 ± 3.1 m/s | speed of sound ([1]; 318.15 K): 1127.8 ± 3.1 m/s | speed of sound ([1]; 323.15 K): 1108.2 ± 3.1 m/s | speed of sound ([1]; 328.15 K): 1088.7 ± 3 m/s | speed of sound ([1]; 333.15 K): 1069.3 ± 3 m/s | speed of sound ([1]; 338.15 K): 1050 ± 3 m/s | speed of sound ([1]; 343.15 K): 1030.8 ± 2.9 m/s | speed of sound ([1]; 348.15 K): 1011.8 ± 2.9 m/s | speed of sound ([1]; 353.15 K): 992.8 ± 2.9 m/s | speed of sound ([1]; 358.15 K): 973.9 ± 2.9 m/s | speed of sound ([1]; 363.15 K): 955.2 ± 2.8 m/s | speed of sound ([1]; 368.15 K): 936.5 ± 2.8 m/s | speed of sound ([1]; 373.15 K): 917.9 ± 2.8 m/s | speed of sound ([1]; 378.15 K): 899.5 ± 2.8 m/s | speed of sound ([1]; 383.15 K): 881.1 ± 2.7 m/s | speed of sound ([1]; 388.15 K): 862.9 ± 2.7 m/s | speed of sound ([1]; 393.15 K): 844.7 ± 2.7 m/s | speed of sound ([1]; 398.15 K): 826.7 ± 2.7 m/s | speed of sound ([1]; 403.15 K): 808.8 ± 2.6 m/s | speed of sound ([1]; 408.15 K): 790.9 ± 2.6 m/s | speed of sound ([1]; 413.15 K): 773.2 ± 2.6 m/s | speed of sound ([1]; 418.15 K): 755.6 ± 2.6 m/s | speed of sound ([1]; 423.15 K): 738 ± 2.5 m/s

CCCCCCCCC [nonane] + CCCCCCCCCCl
speed of sound ([2]; 293.15 K): 1227.3 ± 3.2 m/s | speed of sound ([2]; 298.15 K): 1207.2 ± 3.2 m/s | speed of sound ([2]; 303.15 K): 1187.2 ± 3.2 m/s | speed of sound ([2]; 308.15 K): 1167.3 ± 3.1 m/s | speed of sound ([2]; 313.15 K): 1147.5 ± 3.1 m/s | speed of sound ([2]; 318.15 K): 1127.8 ± 3.1 m/s | speed of sound ([2]; 323.15 K): 1108.2 ± 3.1 m/s | speed of sound ([2]; 328.15 K): 1088.7 ± 3 m/s | speed of sound ([2]; 333.15 K): 1069.3 ± 3 m/s | speed of sound ([2]; 338.15 K): 1050 ± 3 m/s | speed of sound ([2]; 343.15 K): 1030.8 ± 2.9 m/s | speed of sound ([2]; 348.15 K): 1011.8 ± 2.9 m/s | speed of sound ([2]; 353.15 K): 992.8 ± 2.9 m/s | speed of sound ([2]; 358.15 K): 973.9 ± 2.9 m/s | speed of sound ([2]; 363.15 K): 955.2 ± 2.8 m/s | speed of sound ([2]; 368.15 K): 936.5 ± 2.8 m/s | speed of sound ([2]; 373.15 K): 917.9 ± 2.8 m/s | speed of sound ([2]; 378.15 K): 899.5 ± 2.8 m/s | speed of sound ([2]; 383.15 K): 881.1 ± 2.7 m/s | speed of sound ([2]; 388.15 K): 862.9 ± 2.7 m/s | speed of sound ([2]; 393.15 K): 844.7 ± 2.7 m/s | speed of sound ([2]; 398.15 K): 826.7 ± 2.7 m/s | speed of sound ([2]; 403.15 K): 808.8 ± 2.6 m/s | speed of sound ([2]; 408.15 K): 790.9 ± 2.6 m/s | speed of sound ([2]; 413.15 K): 773.2 ± 2.6 m/s | speed of sound ([2]; 418.15 K): 755.6 ± 2.6 m/s | speed of sound ([2]; 423.15 K): 738 ± 2.5 m/s
